Values after ≈ are worked out from the molar mass of the structure shown.
What was measured:
E. coli CFT073 = assay: Determination of minimum inhibitory concentration (MIC); type: cell-based; conditions: Escherichia coli, CFT073, 18 h
Experimental: (§1) A range of concentration of antibiotics, ciprofloxacin (0.0003-0.25 μg mL^−1) and carbenicillin (0.5-512 μg mL^−1), are chosen due to their known potency against all four bacterial strains. Dilutions are prepared in flat bottom, 96 well microtitre plates (Falcon™, Corning™, Fisher Scientific, ON, Canada). Each well of a microtitre plate is then inoculated with the desired bacterial strain (grown in MHB-II and diluted to […]) and the plate is incubated at 37° C. for 18 h under static conditions. Bacterial growth is assessed by (i) monitoring the optical density of the cell suspension in each well at 600 nm (OD600 nm), and (ii) the resazurin microtitre plate assay. In the resazurin microtitre plate assay, each well of a microtitre plate is supplemented with 20 μM resazurin, incubated in the dark for 20 min at room temperature, followed by fluorescence measurements at ex/em 570/590 nm using a TECAN Infinite M200 Pro microplate reader (Tecan Group Ltd., Switzerland). The lowest concentration of a compound able to prevent increase in OD600 nm and resazurin fluorescence intensity is recorded as the MIC for that compound.

P. aeruginosa PA14 = assay: as above; type: cell-based; conditions: Pseudomonas aeruginosa, PA14, 18 h
Experimental: as §1

P. aeruginosa PAO1 = assay: as above; type: cell-based; conditions: Pseudomonas aeruginosa, PAO1, 18 h
Experimental: as §1

P. mirabilis HI4320 = assay: as above; type: cell-based; conditions: Proteus mirabilis, HI4320, 18 h
Experimental: as §1

E. coli CFT073 biofilm = assay: Biofilm formation, microtitre plate crystal violet assay; type: cell-based, Escherichia coli; conditions: p<0.05
Experimental: (§2) Biofilm formation is quantified using the standard microtitre plate model. […] Aliquots (100 μL) of these cultures are transferred into the wells of polystyrene, flat bottom, non-treated 96 well plates (Falcon™, Corning™), in triplicate. For all assays, biofilms are allowed to develop for 16 h at 37° C. under static conditions, after which OD600 values are recorded, the spent broth is decanted from the wells, and the wells are gently rinsed three times with DI water. The washed biofilm is stained with crystal violet (CV). For CV stain assay, 100 μL of 0.1% (w/v) CV is loaded in each well and the plates are incubated for 15 min under static conditions at room temperature. The wells are subsequently rinsed with DI water to remove excess dye and the CV adsorbed to the biomass in each well is solubilized in 100 μL of absolute ethanol for 10 min. The solubilized CV is then quantified (as OD570) using a microplate reader. Control experiments are performed with cell-free broth to adjust for the background signal.

[1] = test system: P. mirabilis HI4320 biofilm; assay: as above; type: cell-based, Proteus mirabilis; conditions: p<0.05
Experimental: as §2

[2] = test system: outer membrane of E. coli CFT073; assay: Outer membrane permeabilization, NPN uptake assay; type: cell-based, Escherichia coli; conditions: sub-MIC; concentration giving maximal increase in NPN uptake
Experimental: The cells are harvested, washed with 5 mM HEPES buffer (pH 7.2), and resuspended in the same volume (10 mL) of 5 mM HEPES buffer (pH 7.2) containing 1 mM N-ethylmaleimide (NEM, Sigma-Aldrich Canada). Aliquots (1 mL) are mixed with NPN to a final concentration of 10 μM (in cell suspension) and fluorescence is measured using the microplate reader (ex/em 350/420 nm).

[3] = test system: proton motive force-driven multidrug efflux pump of P. aeruginosa PA14; assay: Ethidium bromide (EtBr) efflux assay; type: cell-based, Pseudomonas aeruginosa; conditions: PRMSE, catechol at 0.25 times the MIC; CCCP 100 μM; untreated cells 30.9
Experimental: (§3) An overnight grown culture of each strain is diluted 1:100 using MHB-II broth to a final volume of 10 mL and grown to an OD600 of 0.8-1.0 (at 37° C., 150 rpm). […] The tubes are incubated for 1 h (37° C., 150 rpm). The inoculum is then adjusted to 0.4 OD600 with MHB-II broth containing 5 μM EtBr and 2 mL aliquots of this mixture are pelleted (5000×g, 10 min at 4° C.). The pellets are incubated on ice immediately, resuspended in 1 mL of MHB-II, and aliquoted (200 μL) into a polystyrene 96 well black, clear-bottom plate (Corning™, Fisher Scientific, ON, Canada). EtBr efflux from the cells is monitored at room temperature using the microplate reader (ex/em 530/600 nm). Readings are taken at 5 min intervals for 1 h to monitor efflux pump activity. The background fluorescence of the medium is subtracted from all measurements and the assay is repeated independently in triplicate.

[4] = test system: proton motive force-driven multidrug efflux pump of P. aeruginosa PAO1; assay: Ethidium bromide (EtBr) efflux assay; type: cell-based, Pseudomonas aeruginosa; conditions: PRMSE, catechol at 0.25 times the MIC; CCCP 100 μM; untreated cells 37.6
Experimental: as §3

[5] = test system: cell membrane of P. mirabilis HI4320; assay: BacLight membrane integrity assay; type: cell-based, Proteus mirabilis; conditions: PRMSE, catechol at 4 × MIC for 10 min; CTAB 10 μM; untreated = 100
Experimental: The BacLight kit (L-13152, Invitrogen™, Life Technologies Inc., Canada) is used to assess cell membrane damage. Overnight bacterial cultures are diluted 1:40 in fresh MHBII broth to a final volume of 5 mL, grown to an OD600 of 0.5-0.6, washed with filter-sterilized 10 mM phosphate buffered saline (PBS, pH 7.0) and resuspended in 1/10 of the original volume. […] Cultures are incubated at room temperature (21±2° C.) on a tube rocker for 10 min. At the end of the incubation period, an aliquot is taken for CFU counts and the remaining suspension is washed with 10 mM PBS and resuspended to an OD600) of 0.3. An aliquot (100 μL) of each bacterial suspension is removed and added to a 96-well, black, clear-bottom plate (Corning™, Fisher Scientific, ON, Canada) along with an equal volume of the BacLight™ reagent (2× stock solution, L13152, Invitrogen™, Life Technologies Inc., Canada) and the plates are incubated for 10 min at room temperature in the dark. At the end of the incubation period, fluorescence intensity is recorded for both kit components, SYTO-9 (ex/em 485/530 nm) and propidium iodide (ex/em 485/645 nm), using the microplate reader. Fluorescence readings from samples are normalized to the values obtained from untreated control to determine the ratio of membrane compromised cells to cells with intact membrane. […]

[6] = test system: cell membrane of P. aeruginosa PA14; assay: BacLight membrane integrity assay; type: cell-based, Pseudomonas aeruginosa; conditions: PRMSE, catechol at 4 × MIC for 10 min; CTAB 10 μM; untreated = 100
Experimental: The BacLight kit (L-13152, Invitrogen™, Life Technologies Inc., Canada) is used to assess cell membrane damage. Overnight bacterial cultures are diluted 1:40 in fresh MHBII broth to a final volume of 5 mL, grown to an OD600 of 0.5-0.6, washed with filter-sterilized 10 mM phosphate buffered saline (PBS, pH 7.0) and resuspended in 1/10 of the original volume. […] Cultures are incubated at room temperature (21±2° C.) on a tube rocker for 10 min. At the end of the incubation period, an aliquot is taken for CFU counts and the remaining suspension is washed with 10 mM PBS and resuspended to an OD600) of 0.3. An aliquot (100 μL) of each bacterial suspension is removed and added to a 96-well, black, clear-bottom plate (Corning™, Fisher Scientific, ON, Canada) along with an equal volume of the BacLight™ reagent (2× stock solution, L13152, Invitrogen™, Life Technologies Inc., Canada) and the plates are incubated for 10 min at room temperature in the dark. At the end of the incubation period, fluorescence intensity is recorded for both kit components, SYTO-9 (ex/em 485/530 nm) and propidium iodide (ex/em 485/645 nm), using the microplate reader. Fluorescence readings from samples are normalized to the values obtained from untreated control to determine the ratio of membrane compromised cells to cells with intact membrane. Cetyltrimethylammonium bromide (CTAB, Sigma-Aldrich Canada), a cationic detergent that is known to cause membrane damage, is used at concentration of 10 μM as a positive control for membrane disruption.

[7] = substance alone at sub-lethal concentrations, 16 h
[8] = with ciprofloxacin, both at sub-lethal concentrations

Oc1ccccc1O [catechol, 1,2-dihydroxybenzene]
MIC (E. coli CFT073): 1250 µg/mL (≈ 11.4 mM) | MIC (P. aeruginosa PA14): 2500 µg/mL (≈ 22.7 mM) | MIC (P. aeruginosa PAO1): 2500 µg/mL (≈ 22.7 mM) | MIC (P. mirabilis HI4320): 1250 µg/mL (≈ 11.4 mM) | inhibition of monoculture biofilm formation (OD570/OD600) (E. coli CFT073 biofilm; [7]): significant inhibitory effects | inhibitory effect on biofilm formation, with ciprofloxacin (E. coli CFT073 biofilm; [8]): significant inhibitory effects | inhibition of monoculture biofilm formation (OD570/OD600) [1, 7]: significant inhibitory effects | inhibitory effect on biofilm formation, with ciprofloxacin [1, 8]: significant inhibitory effects | Minimum permeabilization concentration (NPN assay) [2]: 0.06 mg/mL | Efflux pump activity [3]: 29.9% | % EtBr efflux [4]: 35.8% | % cells with uncompromised membrane [5]: 50.3% | % cells with uncompromised membrane [6]: 78.6%
